Data set [1] in a line: Aqueous solubility / formulation for in vivo studies. It counts as physicochemical. The settings on record: high concentration of DMSO (~ 50%) needed to solubilise the tracer.
Data set [2] in a line: Partition coefficient (LogD), octanol/PBS shake flask method. It counts as physicochemical. The settings on record: octanol / phosphate buffer pH 7.4, shake flask, radioactivity counted by gamma-counter; read-out: LogD (observed). The text has this: We determined the partition coefficients (LogD) using the octanol/PBS shake flask method.

What is called logD is lipophilicity at a set pH, counting ionised and neutral species.

The structures appear in SMILES notation. Where only a bound is given, the exact number is not on record here.

Consider `CC(C)(CNC(=O)c1cccc(-c2noc(C(F)(F)[18F])n2)c1)c1coc(-c2ccccc2)n1` [[^18F]TMP195, N-(2-methyl-2-(2-phenyloxazol-4-yl)propyl)-3-(5-([18F]trifluoromethyl)-1,2,4-oxadiazol-3-yl)benzamide], for which the aqueous solubility result in data set [1] is recorded as “poor”. Moreover, the pH-dependent lipophilicity (logD) in data set [2] was > 6.

These data come from publication PMC8139947, “Novel late-stage radiosynthesis of 5-[18F]-trifluoromethyl-1,2,4-oxadiazole (TFMO) containing molecules for PET imaging” (Scientific Reports, 2021).
